ChEMBL document CHEMBL1201862, “PubChem BioAssay data set” (2004)
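Where inhibition never reached the appropriate level, the endpoint shown equals the highest concentration tested. Otherwise, values were interpolated linearly from a five-concentration, 48-hour dose response in 96-well plates. GI50 is the concentration that inhibits growth by half.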 Calls of active or inactive are those of the source. No stated cut-off is given here; in the data, active = GI50 up to about 1.1 µM and inactive = higher.

Tests used:
Assay in all cases: growth of human tumour cells (NCI), 48 h
[1] = test system: UO-31
[2] = test system: CAKI-1
[3] = test system: CCRF-CEM
[4] = test system: SF-268
[5] = test system: LOX IMVI
[6] = test system: NCI-H226
[7] = test system: RPMI-8226
[8] = test system: SN12C
[9] = test system: K562
[10] = test system: HCT-15
[11] = test system: KM12
[12] = test system: HL-60
[13] = test system: NCI-H23
[14] = test system: M14
[15] = test system: KM-20L2
[16] = test system: SK-MEL-2
[17] = test system: ACHN
[18] = test system: OVCAR-5

Compound	GI50 [1]	GI50 [2]	GI50 [3]	GI50 [4]	GI50 [5]	GI50 [6]	GI50 [7]	GI50 [8]	GI50 [9]	GI50 [10] [µM]	GI50 [11]	GI50 [12]	GI50 [13]	GI50 [14]	GI50 [15]	GI50 [16]	GI50 [17]	GI50 [18]
Cc1ccc(S(=O)(=O)C(CC(NC=O)S(=O)(=O)c2ccc(C)cc2)NC=O)cc1 (stereo unspecified)	> 100 µM (inactive)	> 100 µM (inactive)	62.4 µM (inactive)	> 100 µM (inactive)	> 100 µM (inactive)	> 100 µM (inactive)	> 100 µM (inactive)	> 100 µM (inactive)	> 100 µM (inactive)	> 100	> 100 µM (inactive)	> 100 µM (inactive)	> 100 µM (inactive)	> 100 µM (inactive)	> 100 µM (inactive)	–	–	–
COc1ccc(/C=C2\CCC(C)(CN(C)C)C2=O)cc1 (stereo unspecified)	> 100 µM (inactive)	18.7 µM (inactive)	–	> 100 µM (inactive)	> 100 µM (inactive)	> 100 µM (inactive)	38 µM (inactive)	> 100 µM (inactive)	64 µM (inactive)	60.8	> 100 µM (inactive)	56.4 µM (inactive)	> 100 µM (inactive)	> 100 µM (inactive)	> 100 µM (inactive)	> 100 µM (inactive)	> 100 µM (inactive)	> 100 µM (inactive)
NC(=O)N/N=C(/c1nc2ccc([N+](=O)[O-])cc2nc1O)C(O)c1ccco1 (stereo unspecified)	53.6 µM (inactive)	61.7 µM (inactive)	34.7 µM (inactive)	63.4 µM (inactive)	21.6 µM (inactive)	> 100 µM (inactive)	43 µM (inactive)	17.4 µM (inactive)	33.9 µM (inactive)	12	–	13.1 µM (inactive)	> 100 µM (inactive)	93.8 µM (inactive)	10.4 µM (inactive)	–	28.4 µM (inactive)	> 100 µM (inactive)
O=C(c1ccccc1)c1c(CNCc2ccccc2)n(C(=O)c2ccccc2)c2ccccc12	8.95 µM (inactive)	69.3 µM (inactive)	23.2 µM (inactive)	43.4 µM (inactive)	–	29.6 µM (inactive)	11.6 µM (inactive)	–	6.37 µM (inactive)	28.8	18.9 µM (inactive)	23.3 µM (inactive)	17.1 µM (inactive)	34.4 µM (inactive)	40 µM (inactive)	63.4 µM (inactive)	14.5 µM (inactive)	> 100 µM (inactive)
Cc1cc2c(C)nn(Cc3ccccc3Cl)c2c(C#N)c1C	> 100 µM (inactive)	–	> 100 µM (inactive)	> 100 µM (inactive)	> 100 µM (inactive)	> 100 µM (inactive)	> 100 µM (inactive)	> 100 µM (inactive)	–	> 100	–	> 100 µM (inactive)	> 100 µM (inactive)	–	> 100 µM (inactive)	> 100 µM (inactive)	> 100 µM (inactive)	> 100 µM (inactive)
NNC(=O)N/N=C1\C(=O)N(c2ccc(Cl)c(Cl)c2)C(=O)C(=O)C1c1nc2ccccc2s1 (stereo unspecified)	> 100 µM (inactive)	> 100 µM (inactive)	50.2 µM (inactive)	> 100 µM (inactive)	–	> 100 µM (inactive)	–	> 100 µM (inactive)	–	> 100	> 100 µM (inactive)	> 100 µM (inactive)	> 100 µM (inactive)	> 100 µM (inactive)	> 100 µM (inactive)	> 100 µM (inactive)	> 100 µM (inactive)	–
CCOC1=C2N=C(C(CC)c3ccccc3F)N=C2C(=O)c2ccccc21 (stereo unspecified)	> 100 µM (inactive)	> 100 µM (inactive)	> 100 µM (inactive)	> 100 µM (inactive)	–	> 100 µM (inactive)	> 100 µM (inactive)	> 100 µM (inactive)	> 100 µM (inactive)	> 100	> 100 µM (inactive)	> 100 µM (inactive)	> 100 µM (inactive)	> 100 µM (inactive)	> 100 µM (inactive)	> 100 µM (inactive)	> 100 µM (inactive)	–
CSc1nnc(C(C#N)C#N)nn1	> 100 µM (inactive)	> 100 µM (inactive)	> 100 µM (inactive)	> 100 µM (inactive)	> 100 µM (inactive)	> 100 µM (inactive)	> 100 µM (inactive)	> 100 µM (inactive)	> 100 µM (inactive)	> 100	> 100 µM (inactive)	> 100 µM (inactive)	> 100 µM (inactive)	> 100 µM (inactive)	> 100 µM (inactive)	–	–	> 100 µM (inactive)
COc1c(O)ccc(/C=N/NC(=S)NCOCCOC(C)=O)c1OC	> 100 µM (inactive)	–	> 100 µM (inactive)	> 100 µM (inactive)	> 100 µM (inactive)	> 100 µM (inactive)	–	> 100 µM (inactive)	> 100 µM (inactive)	> 100	> 100 µM (inactive)	> 100 µM (inactive)	> 100 µM (inactive)	> 100 µM (inactive)	> 100 µM (inactive)	> 100 µM (inactive)	> 100 µM (inactive)	> 100 µM (inactive)
Cc1ccccc1C1OC(=O)c2ccccc21 (stereo unspecified)	> 100 µM (inactive)	–	> 100 µM (inactive)	> 100 µM (inactive)	> 100 µM (inactive)	> 100 µM (inactive)	–	> 100 µM (inactive)	> 100 µM (inactive)	> 100	> 100 µM (inactive)	> 100 µM (inactive)	> 100 µM (inactive)	> 100 µM (inactive)	> 100 µM (inactive)	> 100 µM (inactive)	> 100 µM (inactive)	> 100 µM (inactive)
Cc1ccc(/C=C2\CCCC(C(NO)c3ccc(C)cc3)C2=NO)cc1 (stereo unspecified)	57.4 µM (inactive)	81.8 µM (inactive)	21 µM (inactive)	17.6 µM (inactive)	–	–	22.6 µM (inactive)	20.7 µM (inactive)	33.8 µM (inactive)	36.3	21.2 µM (inactive)	19.5 µM (inactive)	24 µM (inactive)	26.4 µM (inactive)	21.7 µM (inactive)	69.2 µM (inactive)	> 100 µM (inactive)	–
CN1NC2(CCCCC2)ON=C1c1ccccc1	–	> 100 µM (inactive)	> 100 µM (inactive)	> 100 µM (inactive)	> 100 µM (inactive)	> 100 µM (inactive)	–	> 100 µM (inactive)	> 100 µM (inactive)	> 100	> 100 µM (inactive)	> 100 µM (inactive)	> 100 µM (inactive)	> 100 µM (inactive)	> 100 µM (inactive)	–	> 100 µM (inactive)	> 100 µM (inactive)
CC(=O)OC1CC2(C)OC(Cc3ccccc32)O1 (stereo unspecified)	> 100 µM (inactive)	–	> 100 µM (inactive)	> 100 µM (inactive)	> 100 µM (inactive)	> 100 µM (inactive)	> 100 µM (inactive)	> 100 µM (inactive)	> 100 µM (inactive)	–	> 100 µM (inactive)	> 100 µM (inactive)	> 100 µM (inactive)	> 100 µM (inactive)	> 100 µM (inactive)	> 100 µM (inactive)	> 100 µM (inactive)	–
